Measured values from publication PMC11509018, “Evaluation of the Role of Tanshinone I in an In Vitro System of Charcot-Marie-Tooth Disease Type 2N” (International Journal of Molecular Sciences, 2024).

How the values were obtained:
[1] = biological target: T1, AlaRS R326W binding to GST-Nrp1 b1 (Homo sapiens, UniProt P49588, R326W); assay: GST pull down assay; details: 20 µM Tanshinone I, ImageJ, average of three repeats
T1 construct: made in house; host or cells: E. coli BL21 (DE3), pET-21a for AlaRS
T1 sequence (P49588 1-968 R326W): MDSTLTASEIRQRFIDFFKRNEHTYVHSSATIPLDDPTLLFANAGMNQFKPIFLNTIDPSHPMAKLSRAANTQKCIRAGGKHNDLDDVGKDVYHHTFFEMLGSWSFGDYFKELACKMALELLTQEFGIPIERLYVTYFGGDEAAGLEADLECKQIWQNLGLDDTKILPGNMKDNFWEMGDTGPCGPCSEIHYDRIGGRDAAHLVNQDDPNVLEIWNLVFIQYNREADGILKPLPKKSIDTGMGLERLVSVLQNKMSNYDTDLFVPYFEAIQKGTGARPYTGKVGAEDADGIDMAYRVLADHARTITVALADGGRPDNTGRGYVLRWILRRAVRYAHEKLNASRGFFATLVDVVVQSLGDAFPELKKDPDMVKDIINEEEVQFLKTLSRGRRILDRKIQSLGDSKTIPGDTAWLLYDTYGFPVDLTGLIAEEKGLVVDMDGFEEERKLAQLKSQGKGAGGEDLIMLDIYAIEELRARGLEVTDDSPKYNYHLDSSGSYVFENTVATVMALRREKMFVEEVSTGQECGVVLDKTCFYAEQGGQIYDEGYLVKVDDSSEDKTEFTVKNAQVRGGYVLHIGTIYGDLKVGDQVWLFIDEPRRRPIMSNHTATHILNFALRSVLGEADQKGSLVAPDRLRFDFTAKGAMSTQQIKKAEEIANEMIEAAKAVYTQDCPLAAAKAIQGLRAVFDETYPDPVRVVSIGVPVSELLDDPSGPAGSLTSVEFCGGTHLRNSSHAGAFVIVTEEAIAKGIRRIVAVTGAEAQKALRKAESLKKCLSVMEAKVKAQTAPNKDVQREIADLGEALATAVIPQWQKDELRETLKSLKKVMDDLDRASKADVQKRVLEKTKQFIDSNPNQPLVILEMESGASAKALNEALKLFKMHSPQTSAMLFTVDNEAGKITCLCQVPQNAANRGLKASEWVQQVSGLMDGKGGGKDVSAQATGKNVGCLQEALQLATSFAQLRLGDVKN
Protocol: To further investigate whether Tanshinone I-induced conformational changes in AlaRS CMT mutants affect their interaction with Nrp1, Co-IP experiments were performed in cells treated with Tanshinone I. By comparing Co-IP results obtained before and after treatment, we assessed the influence of the drug on the binding strength and mode between the AlaRS CMT mutants and Nrp1. […] To confirm the direct effect of Tanshinone I on the interaction between AlaRS CMT mutants and Nrp1, pull-down experiments were performed. […] Given that the interaction between AlaRS mutants and Nrp1 is associated with disease progression in CMT, the ability of Tanshinone I to disrupt this binding highlights its potential to intervene in the pathogenic mechanisms of these diseases.
Figure 7 The impact of Tanshinone I on the interaction between AlaRS mutants and Nrp1. (A) Co-IP assays were conducted to assess the binding between HA-AlaRS mutants and Nrp1, both with and without treatment with 20 µM Tanshinone I for 24 h. […] (C) Pull down assay was performed to detect the binding between AlaRS mutants and GST-Nrp1 b1 with or without 20 µM Tanshinone I. (D) Relative quantification statistics of the AlaRS mutants pulled down from the GST pull down experiments after Tanshinone I treatment were performed using ImageJ. (E) The cell viability of 293T and NSC34 cells treated with different concentrations of Tanshinone I was assessed using the CCK-8 assay over a 24 h period. TEXT PRINTED IN THE PICTURE: (B) Tanshinone I: Mean density band (N71Y): 0.60; Mean density band (G102R): 0.53; Mean density band (R326W): 0.50; Mean density band (R329H): 0.50; Mean density band (E337K): 0.62 | (D) Tanshinone I: Mean density band (N71Y): 0.82; Mean density band (G102R): 0.76; Mean density band (R326W): 0.84; Mean density band (R329H): 0.84; Mean density band (E337K): 0.90
To detect the direct interactions between the mutant proteins and Nrp1 in vitro, we performed a Glutathione S-transferase (GST) pull-down assay. AlaRS mutants fused with 6 × His were purified with Ni-NTA beads, followed by chromatography on a HiTrap Q HP column. Nrp1 b1 fragments fused with GST were purified with Glutathione Beads (#SA008100, Smart-Lifesciences, Changzhou, China). For GST pull-down assays, 1000 μg of each GST-fused Nrp1 b1 fragment was mixed with 200 μg of 6 × His-tagged fusion protein in binding buffer (50 mM Tris-HCl pH 7.5, 20 mM NaCl, 5% glycerol, 5 mM DTT with 0.1% BSA) at 4 °C overnight. The mixture was next incubated with 30 μL glutathione beads at 4 °C with constant rotation for 2–4 h. Subsequently, the bead/protein complex was washed three times, and eluted with 30 μL 2 × SDS sample buffer. The samples were then subjected to SDS-PAGE analysis. The experiment was repeated three times.

[2] = biological target: T2, AlaRS R326W binding to Nrp1 (Homo sapiens, UniProt P49588, R326W); assay: Co-IP of HA-AlaRS mutant with Nrp1 in transfected cells; assay type: cell-based; details: 20 µM Tanshinone I for 24 h, ImageJ, average of three repeats
T2 construct: expressed in transfected cells
T2 sequence (P49588 1-968 R326W): T1 sequence (P49588 1-968 R326W)

Mean density band (R326W), relative quantification of AlaRS mutant pulled down [1]: 0.84 | Mean density band (R326W), relative quantification of AlaRS mutant immunoprecipitated [2]: 0.50
Compound: Cc1coc2c1C(=O)C(=O)c1c-2ccc2c(C)cccc12 [Tanshinone I]
